Values belong to the compound of their own block, whether it stands above or below them.
Key:
Type in all cases: functional, organism-based, Hepacivirus hominis
[1] = system: Hepatitis C virus; assay: Antiviral activity against HCV genotype 1a harboring NS5A Y93H mutant by real time PCR analysis; settings: subtype 1a
[2] = system: Hepatitis C virus; assay: Antiviral activity against HCV genotype 1b by real time PCR analysis
[3] = system: Hepatitis C virus; assay: Antiviral activity against HCV genotype 1a by real time PCR analysis; settings: subtype 1a
[4] = system: Hepatitis C virus; assay: Antiviral activity against HCV genotype 2a by real time PCR analysis
[5] = system: Hepatitis C virus; assay: Antiviral activity against HCV genotype 3a by real time PCR analysis
[6] = system: Hepatitis C virus; assay: Antiviral activity against HCV genotype 1a in presence of 10% FBS by real time PCR analysis; settings: subtype 1a
[7] = system: Hepatitis C virus; assay: Antiviral activity against HCV genotype 1b in presence of 10% FBS by real time PCR analysis

Compound: COC(=O)N[C@H](C(=O)N1C[C@H](OC)C[C@H]1c1ncc(-c2ccc(-c3ccc4c(ccc5nc([C@@H]6[C@H]7CC[C@H](C7)N6C(=O)[C@@H](NC(=O)OC)C(C)C)[nH]c54)c3)cc2)[nH]1)C(C)C
EC50 [1]: 43 nM | EC50 [2]: 7 pM | EC50 [3]: 0.05 nM | EC50 [4]: 0.02 nM

Compound: COC(=O)N[C@H](C(=O)N1CCC[C@H]1c1ncc(-c2ccc(-c3ccc4c(ccc5nc([C@@H]6CCCN6C(=O)[C@@H](NC(=O)OC)C(C)C)[nH]c54)c3)cc2O)[nH]1)C(C)C
EC50 [1]: 201 nM | EC50 [2]: 4 pM | EC50 [3]: 0.08 nM | EC50 [4]: 0.2 nM

EC50 [2]: 2 pM | EC50 [3]: 0.02 nM | EC50 [4]: 0.09 nM
Compound: COC(=O)N[C@H](C(=O)N1CCC[C@H]1c1ncc(-c2ccc(-c3ccc4c(ccc5nc([C@@H]6CCCN6C(=O)[C@@H](NC(=O)OC)C(C)C)[nH]c54)c3)cc2C)[nH]1)C(C)C

Compound: COC(=O)N[C@H](C(=O)N1CCC[C@H]1c1nc2ccc3cc(-c4ccc(-c5c[nH]c([C@@H]6C[C@@H]7CN6C(=O)[C@H](C(C)C)NC(=O)OCCC/C=C/CO7)n5)cc4)ccc3c2[nH]1)C(C)C
EC50 [5]: 0.04 nM | EC50 [1]: 43 nM | EC50 [2]: 6 pM | EC50 [3]: 0.01 nM

Compound: COC(=O)N[C@H](C(=O)N1C[C@H](N)C[C@H]1c1ncc(-c2ccc(-c3ccc4c(ccc5nc([C@@H]6CCCN6C(=O)[C@@H](NC(=O)OC)C(C)C)[nH]c54)c3)cc2)[nH]1)C(C)C
EC50 [1]: 987 nM | EC50 [2]: 30 pM | EC50 [3]: 0.4 nM | EC50 [4]: 2 nM

Compound: COC(=O)N[C@H](C(=O)N1CCC[C@H]1c1ncc(-c2ccc(-c3ccc4c(c3)c(Cl)cc3nc([C@@H]5CCCN5C(=O)[C@@H](NC(=O)OC)C(C)C)[nH]c34)cc2)[nH]1)C(C)C
EC50 [1]: 121 nM | EC50 [2]: 3 pM | EC50 [3]: 0.01 nM | EC50 [4]: 0.004 nM

EC50 [2]: 2 pM | EC50 [3]: 0.1 nM | EC50 [4]: 0.2 nM
Compound: COC(=O)N[C@H](C(=O)N1CCC[C@H]1c1ncc(-c2ccc(-c3ccc4c(ccc5nc([C@@H]6CCCN6C(=O)[C@@H](NC(=O)OC)C(C)C)[nH]c54)c3)cc2C2CC2)[nH]1)C(C)C

Compound: COC(=O)N[C@H](C(=O)N1CCC[C@H]1c1ncc(-c2ccc(-c3ccc4c(ccc5nc([C@@H]6[C@H]7CC[C@H](C7)N6C(=O)[C@@H](NC(=O)OC)C(C)C)[nH]c54)c3)cc2)[nH]1)C(C)C
EC50 [1]: 93 nM | EC50 [2]: 5 pM | EC50 [3]: 0.02 nM | EC50 [4]: 0.02 nM

Compound: COC(=O)N[C@H](C(=O)N1CCC[C@H]1c1nc2ccc3cc(-c4ccc5c(c4)OCCCCCCOC(=O)N[C@@H](C(C)C)C(=O)N4CCC[C@H]4c4ncc-5[nH]4)ccc3c2[nH]1)C(C)C
EC50 [1]: 857 nM | EC50 [2]: 2000 pM | EC50 [3]: 1 nM

Compound: COC(=O)N[C@H](C(=O)N1C[C@H](NC(C)=O)C[C@H]1c1ncc(-c2ccc(-c3ccc4c(ccc5nc([C@@H]6CCCN6C(=O)[C@@H](NC(=O)OC)C(C)C)[nH]c54)c3)cc2)[nH]1)C(C)C
EC50 [1]: 225 nM | EC50 [2]: 10 pM | EC50 [3]: 0.07 nM | EC50 [4]: 0.1 nM

Compound: COCCO[C@@H]1C[C@@H](c2ncc(-c3ccc(-c4ccc5c(ccc6nc([C@@H]7[C@H]8CC[C@H](C8)N7C(=O)[C@@H](NC(=O)OC)C(C)C)[nH]c65)c4)cc3)[nH]2)N(C(=O)[C@@H](NC(=O)OC)C(C)C)C1
EC50 [1]: 404 nM | EC50 [2]: 10 pM | EC50 [3]: > 1 nM | EC50 [4]: 0.1 nM

EC50 [2]: 4000 pM | EC50 [3]: > 1 nM
Compound: CC(C)[C@H](NC(=O)OC1(C)CC1)C(=O)N1CCC[C@H]1c1ncc(-c2ccc(-c3ccc4c(c3)c(Cl)cc3nc([C@@H]5CCCN5C(=O)[C@@H](NC(=O)OC5(C)CC5)C(C)C)[nH]c34)cc2)[nH]1

Compound: COC(=O)N[C@H](C(=O)N1CCC[C@H]1c1ncc(-c2ccc3oc(-c4ccc(-c5c[nH]c([C@@H]6C[C@@H]7CN6C(=O)[C@H](C(C)C)NC(=O)OC/C=C/CCCO7)n5)cc4)cc3c2)[nH]1)C(C)C
EC50 [5]: 2 nM | EC50 [1]: 45 nM | EC50 [2]: 40 pM | EC50 [3]: 0.4 nM

Compound: COC(=O)N[C@@H]1C[C@@H](c2ncc(-c3ccc(-c4ccc5c(ccc6nc([C@@H]7CCCN7C(=O)[C@@H](NC(=O)OC)C(C)C)[nH]c65)c4)cc3)[nH]2)N(C(=O)[C@@H](NC(=O)OC)C(C)C)C1
EC50 [1]: 80 nM | EC50 [2]: 9 pM | EC50 [3]: 0.2 nM | EC50 [4]: 0.05 nM

EC50 [6]: 1.4 nM | EC50 [7]: 0.2 nM
Compound: COC(=O)N[C@H](C(=O)N1CCC[C@H]1c1ncc(-c2ccc3oc(-c4ccc(-c5c[nH]c([C@@H]6C[C@@H]7CN6C(=O)[C@H](C(C)C)NC(=O)OCCCCCCO7)n5)cc4)cc3c2)[nH]1)C(C)C

Compound: COC(=O)N[C@H](C(=O)N1C[C@H](O)C[C@H]1c1ncc(-c2ccc(-c3ccc4c(ccc5nc([C@@H]6[C@H]7CC[C@H](C7)N6C(=O)[C@@H](NC(=O)OC)C(C)C)[nH]c54)c3)cc2)[nH]1)C(C)C
EC50 [1]: 21 nM | EC50 [2]: 7 pM | EC50 [3]: 0.2 nM | EC50 [4]: 0.4 nM

Compound: COC(=O)N[C@H](C(=O)N1CCC[C@H]1c1nc2ccc3cc(-c4ccc(-c5c[nH]c([C@@H]6C[C@@H]7CN6C(=O)[C@H](C(C)C)NC(=O)OCCCCCCO7)n5)cc4)ccc3c2[nH]1)C(C)C
EC50 [5]: 0.5 nM | EC50 [1]: 188 nM | EC50 [2]: 10 pM | EC50 [3]: 0.006 nM

Compound: COC(=O)N[C@H](C(=O)N1CCC[C@H]1c1nc2ccc3cc(-c4ccc(-c5cnc([C@@H]6CC[C@H]7C(=O)N[C@@H](C(C)C)C(=O)N76)[nH]5)cc4)ccc3c2[nH]1)C(C)C
EC50 [5]: 12 nM | EC50 [1]: 460 nM | EC50 [2]: 7 pM | EC50 [3]: 0.3 nM

EC50 [2]: 35000 pM | EC50 [3]: > 1 nM
Compound: CC(C)OC(=O)N[C@H](C(=O)N1CCC[C@H]1c1ncc(-c2ccc(-c3ccc4c(c3)c(Cl)cc3nc([C@@H]5CCCN5C(=O)[C@@H](NC(=O)OC(C)C)C(C)C)[nH]c34)cc2)[nH]1)C(C)C

Compound: COC(=O)N[C@H](C(=O)N1CCC[C@H]1c1ncc(-c2ccc(-c3ccc4c(ccc5nc([C@@H]6CCCN6C(=O)[C@@H](NC(=O)OC)C(C)C)[nH]c54)c3)cc2OCCN2CCOCC2)[nH]1)C(C)C
EC50 [1]: 1340 nM | EC50 [2]: 2000 pM | EC50 [3]: > 1 nM | EC50 [4]: > 10 nM

Compound: COCCOC(=O)N[C@H](C(=O)N1CCC[C@H]1c1ncc(-c2ccc(-c3ccc4c(c3)c(Cl)cc3nc([C@@H]5CCCN5C(=O)[C@@H](NC(=O)OCCOC)C(C)C)[nH]c34)cc2)[nH]1)C(C)C
EC50 [1]: > 1000 nM | EC50 [2]: 15000 pM | EC50 [3]: > 1 nM | EC50 [4]: > 1 nM

From ChEMBL document CHEMBL3822402, “Discovery of potent macrocyclic HCV NS5A inhibitors” (Bioorg Med Chem Lett, 2016)
